Results reported in US9770026B2, “Substituted pyrimidine compound and uses thereof” (Shenyang Sinochem Agrochemicals R&D Co., Ltd., priority 2012, dated 2017).

Assays:
cucumber downy mildew = test: protectant activity in vivo against cucumber downy mildew
[1] = test system: Green peach aphids (Myzus Persicae Sulzer); test: bioactivity test against green peach aphid, airbrush foliar spray; assay type: in vivo; conditions: for Insecticidal activity against peach aphid (%): contrastive test
Method in brief: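 Aphids (15-30 per cabbage leaf disc) on moist filter paper were airbrush-sprayed at 10 psi, 0.5 mL, with compound from acetone:methanol (1:1) diluted in water with 0.1% tween 80. Held at 25±1 C, 60±5% RH; survivors counted after 48 hrs to give death rates.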

carmine spider mite = test: bioactivity test against carmine spider mite, airbrush spray; assay type: in vivo; conditions: for control against carmine spider mite: mortality after 72 hrs
Method in brief: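 Broadbean seedlings infested with adult mites were sprayed with compound (acetone/methanol stock diluted in 0.1% Tween 80 water) by airbrush at 0.7 kg/cm^2, 0.5 ml. Three replicates were run. Mortality was scored after 72 hrs.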

rice blast = test: microbe, parasite or virus in culture; assay type: cell-based; conditions: Pyricularia oryzae
wheat powdery mildew = test: protectant activity in vivo against wheat powdery mildew
corn rust = test: protectant activity in vivo against corn rust
Diamond back moth = test: insecticidal activity against diamond back moth, airbrush spray; assay type: in vivo; conditions: 600 ppm, mortality after 72 hrs
Method in brief: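 Airbrush leaf-disc spray test: both faces of 2 cm cabbage discs received 0.5 ml of test solution at 0.7 kg/cm^2. Solutions were made in acetone:methanol (1:1) and brought to concentration with 0.1% Tween 80 in water. Ten second-instar larvae per disc, triplicates, were held at 25° C and 60˜70% R.H., with mortality recorded at 72 hrs.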

armyworm = test: bioactivity test against armyworm, airbrush spray; assay type: in vivo; conditions: mortality after 72 h
[2] = 10 ppm, death rate after 48 hrs

Cc1ncnc(NCCc2ccc(Oc3ccc(C(F)(F)F)cn3)cc2)c1Cl [Compound I-22]
50%: pest or weed control at 1.6 µg/mL (corn rust; Zea mays, 168 h, read-out: control effect against corn rust (%), 1.6 mg/L, protectant activity)
59%: Insecticidal activity against carmine spider mite (% ) (carmine spider mite; 5 mg/L)
80 to 99%: inhibition at 8.3 ppm (rice blast; read-out: inhibition rate against rice blast, 8.3 ppm, in vitro)
74%: Insecticidal activity against carmine spider mite (% ) (carmine spider mite; 10 mg/L, contrastive test)
20%: pest or weed control at 0.4 µg/mL (corn rust; Zea mays, 168 h, read-out: control effect against corn rust (%), 0.4 mg/L, protectant activity)
85%: pest or weed control at 3.125 µg/mL (cucumber downy mildew; Cucumis sativus, 168 h, read-out: control effect against cucumber downy mildew (%), 3.125 mg/L, protectant activity)
15%: pest or weed control at 1.6 µg/mL (wheat powdery mildew; Triticum aestivum, 168 h, read-out: control effect against wheat powdery mildew (%), 1.6 mg/L, protectant activity)
100%: protectant activity against cucumber downy mildew in vivo (cucumber downy mildew; 100 ppm) | pest or weed control at 6.25 µg/mL (cucumber downy mildew; Cucumis sativus, 168 h, read-out: control effect against cucumber downy mildew (%), 6.25 mg/L, protectant activity) | pest or weed control at 12.5 µg/mL (cucumber downy mildew; Cucumis sativus, 168 h, read-out: control effect against cucumber downy mildew (%), 12.5 mg/L, protectant activity) | pest or weed control at 25 µg/mL (cucumber downy mildew; Cucumis sativus, 168 h, read-out: control effect against cucumber downy mildew (%), 25 mg/L, protectant activity) | pest or weed control at 50 µg/mL (cucumber downy mildew; Cucumis sativus, 168 h, read-out: control effect against cucumber downy mildew (%), 50 mg/L, protectant activity) | pest or weed control at 100 µg/mL (cucumber downy mildew; Cucumis sativus, 168 h, read-out: control effect against cucumber downy mildew (%), 100 mg/L, protectant activity) | pest or weed control at 400 µg/mL (cucumber downy mildew; Cucumis sativus, 168 h, read-out: control effect against cucumber downy mildew (%), 400 mg/L, protectant activity) | pest or weed control at 6.25 ppm (cucumber downy mildew; Cucumis sativus, 168 h, read-out: protectant activity against cucumber downy mildew in vivo, 6.25 ppm) | pest or weed control at 12.5 ppm (cucumber downy mildew; Cucumis sativus, 168 h, read-out: protectant activity against cucumber downy mildew in vivo, 12.5 ppm) | pest or weed control at 25 ppm (cucumber downy mildew; Cucumis sativus, 168 h, read-out: protectant activity against cucumber downy mildew in vivo, 25 ppm) | pest or weed control at 50 ppm (cucumber downy mildew; Cucumis sativus, 168 h, read-out: protectant activity against cucumber downy mildew in vivo, 50 ppm) | pest or weed control at 400 ppm (cucumber downy mildew; Cucumis sativus, 168 h, read-out: protectant activity against cucumber downy mildew in vivo, 400 ppm) | Insecticidal activity against peach aphid (%) ([1]; 1.25 mg/L) | Insecticidal activity against peach aphid (%) ([1]; 2.5 mg/L) | Insecticidal activity against peach aphid (%) ([1]; 5 mg/L) | Insecticidal activity against peach aphid (%) ([1]; 10 mg/L) | Insecticidal activity against peach aphid (%) ([1]; 100 mg/L) | Insecticidal activity against peach aphid (%) ([1]; 600 mg/L) | control (test results against green peach aphid) [1, 2] | pest or weed control at 100 ppm ([1]; Myzus persicae, foliar, 48 h, 100 ppm, death rate after 48 hrs) | pest or weed control at 600 ppm ([1]; Myzus persicae, foliar, 48 h, 600 ppm, death rate after 48 hrs) | Insecticidal activity against carmine spider mite (% ) (carmine spider mite; 100 mg/L, contrastive test) | Insecticidal activity against carmine spider mite (% ) (carmine spider mite; 600 mg/L, contrastive test) | control against carmine spider mite (carmine spider mite; 100 ppm) | control against carmine spider mite (carmine spider mite; 600 ppm) | protectant activity against wheat powdery mildew in vivo (wheat powdery mildew; 6.25 ppm) | protectant activity against wheat powdery mildew in vivo (wheat powdery mildew; 100 ppm) | pest or weed control at 6.25 µg/mL (wheat powdery mildew; Triticum aestivum, 168 h, read-out: control effect against wheat powdery mildew (%), 6.25 mg/L, protectant activity) | pest or weed control at 25 µg/mL (wheat powdery mildew; Triticum aestivum, 168 h, read-out: control effect against wheat powdery mildew (%), 25 mg/L, protectant activity) | pest or weed control at 100 µg/mL (wheat powdery mildew; Triticum aestivum, 168 h, read-out: control effect against wheat powdery mildew (%), 100 mg/L, protectant activity) | pest or weed control at 400 µg/mL (wheat powdery mildew; Triticum aestivum, 168 h, read-out: control effect against wheat powdery mildew (%), 400 mg/L, protectant activity) | pest or weed control at 25 ppm (wheat powdery mildew; Triticum aestivum, 168 h, read-out: protectant activity against wheat powdery mildew in vivo, 25 ppm) | pest or weed control at 400 ppm (wheat powdery mildew; Triticum aestivum, 168 h, read-out: protectant activity against wheat powdery mildew in vivo, 400 ppm) | protectant activity against corn rust in vivo (corn rust; 6.25 ppm) | protectant activity against corn rust in vivo (corn rust; 100 ppm) | pest or weed control at 6.25 µg/mL (corn rust; Zea mays, 168 h, read-out: control effect against corn rust (%), 6.25 mg/L, protectant activity) | pest or weed control at 25 µg/mL (corn rust; Zea mays, 168 h, read-out: control effect against corn rust (%), 25 mg/L, protectant activity) | pest or weed control at 100 µg/mL (corn rust; Zea mays, 168 h, read-out: control effect against corn rust (%), 100 mg/L, protectant activity) | pest or weed control at 400 µg/mL (corn rust; Zea mays, 168 h, read-out: control effect against corn rust (%), 400 mg/L, protectant activity) | pest or weed control at 25 ppm (corn rust; Zea mays, 168 h, read-out: protectant activity against corn rust in vivo, 25 ppm) | pest or weed control at 400 ppm (corn rust; Zea mays, 168 h, read-out: protectant activity against corn rust in vivo, 400 ppm) | control (test results against diamond back moth) (Diamond back moth)

Cc1ncnc(NCCc2ccc(Oc3ccc(C(F)(F)F)cn3)cc2)c1Cl [Compound I-6763]
100%: control (test results against green peach aphid) [1, 2] | control (test results against green peach aphid) ([1]; 100 ppm, death rate after 48 hrs) | control (test results against green peach aphid) ([1]; 600 ppm, death rate after 48 hrs) | pest or weed control at 5 ppm ([1]; Myzus persicae, foliar, 48 h, 5 ppm, death rate after 48 hrs) | control against carmine spider mite (carmine spider mite; 100 ppm) | control against carmine spider mite (carmine spider mite; 600 ppm) | inhibition at 25 ppm (rice blast; read-out: inhibition rate against rice blast, 25 ppm, in vitro) | protectant activity against wheat powdery mildew in vivo (wheat powdery mildew; 100 ppm) | protectant activity against wheat powdery mildew in vivo (wheat powdery mildew; 400 ppm) | protectant activity against corn rust in vivo (corn rust; 100 ppm) | protectant activity against corn rust in vivo (corn rust; 400 ppm) | control (test results against armyworm) (armyworm; 600 ppm) | pest or weed control at 100 ppm (armyworm; 72 h, 100 ppm)
